Data as given in article PMC13576449, “Small-Molecule Activators of PRMT1: Discovery, SAR Analyses, and Proapoptotic Effects in Pancreatic Cancer Cells” (Journal of Medicinal Chemistry, 2026).
Where two headings read alike, the source gives them in different places.

Assays:
[1] = biological target: T1, FLAG-tagged PRMT1 (Rattus norvegicus, UniProt Q63009); assay: Liquid in vitro methyltransferase assay, scintillation counting (GST-GAR); type: biochemical; conditions: 200 μM compound, except TR-033 100 μM; vs DMSO control
T1 construct: Full-length FLAG-tagged PRMT protein; made in house; host or cells: Sf9 insect cells (baculovirus)
Method: (§1) As negative control (Ctrl (−)), PRMT1 enzymes and [^14C-methyl]-SAM were incubated without substrates. Subsequently, samples were separated by SDS-PAGE, blotted, and analyzed by autoradiography. Substrates (H2A, H4 or GST-GAR) and molecular weights (kDa) of the protein marker are indicated. Black lines designate composite images, assembled from the same blots and exposure times. The methylation signals of the substrates were densitometrically quantified, and expressed relative to the DMSO-treated control, as indicated by the numbers below the autoradiographs. Representative results are depicted, with quantification graphs (below the autoradiographs in A and B) summarizing biological replicates. […] Subsequently, GST-GAR was immobilized on glutathione-beads and PRMT1 activity was measured by quantifying the incorporation of ^14C-methyl groups (in cpm) using liquid scintillation counting. […] Cell viability was quantified using the CellTiter-Glo assay. Viability of compound-treated cells is shown in % relative to the viability of solvent-treated cells, which was set to 100% (mean ± SD, n = 3), and then plotted against the logarithm of the compound concentrations. Concentration-viability curves were fitted by nonlinear regression, with the half-maximal inhibitory concentration (IC50) of the compounds for PANC-1 cell viability and the coefficient of determination (R^2) indicated. […] Subsequently, whole-cell extracts were prepared and analyzed by Western blot using antibodies against ADMA, ACTIN (ACT), and VINCULIN (VINC), of which the latter two stainings served as loading controls. Molecular weights (kDa) of the protein marker are indicated. All the ADMA signals per lane were densitometrically quantified, normalized to the signal of the respective loading control and expressed relative to the DMSO-treated control, as indicated by the numbers below the immunostainings.
For the liquid methyltransferase assays, the reaction mixtures, containing 1–2 μg eluted FLAG-tagged PRMT1 and as the substrate 1–2 μg eluted GST-GAR protein at a total volume of 20 μL in PBS, were preincubated in the absence (DMSO) or presence of compounds at room temperature and under agitation (800 rpm) for 30 min. […] After washing, 1 mL scintillation liquid (Rotiszint ecoplus, Roth) was added to the bead-bound GST-GAR and incorporated ^14C-methyl groups were quantified using a scintillation counter (LS6500, Beckman Coulter). Background signal was determined using 1 mL of scintillation fluid alone and was subtracted from the measured counts of the enzymatic reactions. Compound-treated PRMT1 activity was expressed as background-corrected counts (in cpm) normalized to the DMSO control.

[2] = system: PANC-1 cells; assay: Cell viability, CellTiter-Glo assay, PANC-1; type: cell-based, human; conditions: n = 3, read-out: half-maximal inhibitory concentration (IC50) for PANC-1 cell viability
Method: as §1
Cell viability was assessed using the CellTiter-Glo assay (Promega) according to the manufacturer’s instructions. Briefly, PANC-1 and PaTu8988T cells were seeded as triplicates in 96 well plates (5 × 10^3 cells/well) and allowed to adhere for 3–4 h, followed by treatment with the compounds at 11–12 concentrations spanning 0.028–120 μM for 96 h, with DMSO (solvent) treated cells serving as control. Subsequently, cell viability was quantified by measuring luminescence on a microplate reader, and the signal of compound-treated cells was normalized to the signal of the solvent-treated control, which was set to 100%. Cell viability in % was plotted against the logarithm of the compound concentration, and concentration-response curves were fitted by nonlinear regression using a three-parameter logistic model to determine half-maximal inhibitory concentrations (IC50).

[3] = system: PANC-1 cells; assay: Annexin V/PI flow cytometry apoptosis assay, PANC-1; type: cell-based, human; conditions: TR-07 10 μM; for gemcitabine-induced apoptosis, AV/PI flow cytometry, co-treatment: TR-033 5 µM, TR-036 10 µM, ICTR-059 5 µM, after 24 h gemcitabine 1 μM, 48 h, vs gemcitabine alone
Method: 6 Effect of small-molecule modulators on gemcitabine-induced apoptosis and tumor growth of PDAC cells. […] After 2 h, gemcitabine (GEM) was added at increasing concentrations (10 and 25 nM) or not (−) for another incubation of 72 h. Subsequently, the luminescence-based caspase3/7 assay was performed. The activity of caspase 3/7 in treated cells was normalized to the activity measured in untreated cells (dark gray bar), which was set to 1 (mean SD, n = 6 for PANC-1 and n = 4 for PaTu8988T; *: p ≤ 0.05, **: p ≤ 0.01, ***: p ≤ 0.001, using the student t-test). […] After 24 h, gemcitabine (GEM, 1 μM) was added (+) or not (−) for another incubation of 48 h. Subsequently, the apoptotic cell fraction was quantified in % by flow cytometry using FITC-labeled Annexin V (AV) and propidium iodide (PI) staining (in B: mean ± SD, n = 6 for PANC-1 and n = 5 for PaTu8988T; **: p ≤ 0.01, ***: p ≤ 0.001, ****: p ≤ 0.0001, using the student t-test). […] Viable cells are AV/PI double-negative (AV–/PI–, lower left quadrant, Q4), early apoptotic cells are AV single-positive (AV+/PI– upper left quadrant, Q1), late apoptotic cells are AV/PI double-positive (AV+/PI+, upper right quadrant, Q2), and necrotic cells are PI single-positive (AV–/PI+, lower right quadrant, Q3). The sum of early and late apoptotic cell numbers ([…] in %) is indicated in red. D-G: The workflow of the PDAC xenograft experiments in mice is depicted in D. PANC-1 cells (2 × 10^6 cells/mouse) were subcutaneously (s.c.) injected in the right flank of female athymic nude mice. Small tumor nodules appeared 6 days post-engraftment. […] Tumor volumes were measured every second day using a digital caliper. […] At the end of the 2 weeks, mice were sacrificed and tumors were dissected (F).
For quantification of apoptosis by Fluorescence Activated Cell Sorting (FACS), PANC-1 and PaTu8988T cells were seeded in 6-well plates (250 × 10^3 cells/well) and cultured in the absence or presence of compounds. After 24 h, gemcitabine was added or not for another 48 h. After harvesting and washing, unfixed cells (0.5–1 × 10^6) were incubated with FITC-labeled Annexin V and/or PI (BD Pharmingen) according to the manufacturer’s instructions. All samples were analyzed using a BD FACSCalibur flow cytometer (BD Bioscience). Data were acquired using the CellQuestPro program and analyzed with the FlowJo (FlowJo LLC) software. […]
induced apoptosis in PDAC cell lines.
After 24 hours, gemcitabine (GEM, 1 µM) was added (+) or not
(-) for another incubation of 48 hours. Subsequently, the apoptotic cell fraction was assessed by flow cytometry using FITC-labeled Annexin V (AV) and propidium iodide (PI) staining and quantified in % (mean ± SD, n=3-4; ns: not significant, *: p ≤0.05, **: p ≤0.01, ***: p ≤0.001, ****: p ≤0.0001, using the student t-test).

T1 sequence (Q63009 whole entry): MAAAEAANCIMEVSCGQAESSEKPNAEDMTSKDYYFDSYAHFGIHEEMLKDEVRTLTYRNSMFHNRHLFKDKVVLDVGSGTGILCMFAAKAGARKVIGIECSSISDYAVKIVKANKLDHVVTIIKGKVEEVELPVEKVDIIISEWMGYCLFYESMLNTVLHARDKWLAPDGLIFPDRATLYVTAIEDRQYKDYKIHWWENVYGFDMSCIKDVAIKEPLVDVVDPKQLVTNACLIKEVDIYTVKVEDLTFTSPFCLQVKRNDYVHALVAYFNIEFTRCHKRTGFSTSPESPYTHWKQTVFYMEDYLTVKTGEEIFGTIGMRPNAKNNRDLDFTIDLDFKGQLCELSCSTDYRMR

IC50 ([2]; Homo sapiens, PANC-1, 96 h) [µM]	Compound	PRMT1 methylation activity toward GST-GAR, liquid scintillation counting [1]	apoptosis, AV/PI flow cytometry, single agent [3]	gemcitabine-induced apoptosis, AV/PI flow cytometry, co-treatment [3]	IC50 ([2]; 96 h) [µM]
10	CN(C)Cc1cccc(-c2ccc3[nH]c(=O)c4ccccc4c3c2)c1 [TR-033, 2-{3-[(Dimethylamino)methyl]phenyl}phenanthridin-6(5H)-One]	increased	–	rather diminished the gemcitabine-triggered cell death	–
32	CCN(CC)Cc1cccc(N/C=C2\C(=O)NC(=O)c3ccccc32)c1.Cl [TR-036, (Z )-N-(3-{[(1,3-Dioxo-2,3-dihydroisoquinoline-4(1 H )-ylidene)methyl]amino}benzyl)-N -ethylethanaminium chloride]	increased	–	rather diminished the gemcitabine-triggered cell death	–
–	(Z)-2-(2-{[(1,3-Dioxo-2,3-dihydroisoquinolin-4(1H)-ylidene)methyl]amino}phenyl)-N,N-dimethylethan-1-aminium chloride [ICTR-059]	increased	–	had no effect	19

Compound	IC50 ([2]; Homo sapiens, PANC-1, 96 h) [µM]	PRMT1 methylation activity toward GST-GAR, liquid scintillation counting [1]	apoptosis, AV/PI flow cytometry, single agent [3]	gemcitabine-induced apoptosis, AV/PI flow cytometry, co-treatment [3]	IC50 ([2]; 96 h) [µM]
CN(C)Cc1cccc(CN/C=C2\C(=O)NC(=O)c3ccccc32)c1.Cl [TR-07, (Z)-1-[3-({[(1,3-Dioxo-2,3-dihydroisoquinolin-4(1H)-lidene)methyl]amino}methyl)phenyl]-N,N-dimethylmethanaminium chloride]	45	increased	did not significantly induce apoptosis	significant increase in the early and late apoptotic stages	–
